Laboratory results as given in publication PMC6207618, “The GbsR Family of Transcriptional Regulators: Functional Characterization of the OpuAR Repressor” (Frontiers in Microbiology, 2018).
“Also recorded” adds a separate entry of the source.

Test system: opuAA-treA reporter activity
Assay: opuAA-treA reporter fusion TreA enzyme activity assay
Format: cell-based, Bacillus subtilis
Conditions: strain STHB10 (OpuAR+), SMM with 1.2 M NaCl, 1 mM compatible solute
From the text: opuAAB.infantis′-treA reporter gene fusions were constructed using primers opuAR treA Frag1/2 rev and either opuAR treA Frag1/4 for (Supplementary Table S2) to amplify a 1940-bp DNA fragment from chromosomal DNA of B. infantis NRRL B-14911, including the predicted opuA promoter region and the coding region of opuAR, or primer opuAR treA Frag2 for, to generate a fragment lacking the opuAR gene. PCR products, which had been cut with BamHI and SmaI, were cloned into the vector pJMB1 ([Hoffmann et al., 2013]). This vector carries a promoterless treA gene, whose gene product [phospho-α-(1,1)-glucosidase] can be assayed and photometrically quantitated with the chromogenic substrate α-PNPG ([Gotsche and Dahl, 1995]). The plasmids resulting for the construction of the treA transcriptional reporter gene fusions were named pSTH33 (opuAR^+/opuAAB.i-treA) and pSTH34 (opuAR^-/opuAAB.i-treA) (Supplementary Table S3). All treA reporter gene fusions were stably integrated as a single copy into the chromosome of various B. subtilis strains at the amyE gene; all of these strains carry a gene disruption mutation of the native chromosomal treA gene of B. subtilis to allow the assignment of the measured TreA enzyme activity to the reporter gene constructs (Supplementary Table S1).
Aliquots (1.5 ml) from cultures of B. subtilis strains carrying chromosomal opuAAB.i′-treA reporter operon gene fusions (Supplementary Table S1) were used to monitor the expression levels by assaying the TreA reporter enzyme activity as described previously using the chromogenic substrate α-PNPG ([Gotsche and Dahl, 1995]). The TreA-specific activity is expressed in units per milligram of protein. Protein concentrations were estimated from the optical density of the cell culture harboring the treA reporter operon gene fusion ([Miller, 1972]).
FIGURE 6 Influence of the B. subtilis GbsR-like regulators on the expression of opuA from B. infantis and its transcriptional response to the presence of compatible solutes. (A) Genetic structure of the opuAA-treA transcriptional reporter fusions. (B) The opuAA-treA reporter gene fusions, either including or lacking the B. infantis opuAR gene, were integrated into the chromosome of the B. subtilis strain STHB05; it carries gene disruption mutations of all three GbsR-like regulators, resulting in strains STHB10 (OpuAR^+) and STHB11 (OpuAR^-). […] The opuAA-treA reporter strains were grown in SMM to early exponential growth phase (OD578 1–1.5) and then assayed for TreA reporter enzyme activity. The shown data represent four independent biological replicates and each culture was assayed twice. (C) Strain STHB10 (opuAR^+/opuAA-treA) was grown in SMM with increasing NaCl concentrations until each of these cultures reached mid-exponential growth phase (OD578 of about 1.5) and were then harvested for TreA reporter enzyme activity assays. The given data are the means and standard deviations of four independent biological replicates and each culture was assayed twice. (D) Expression of the opuAA-treA reporter gene construct in response to extracellular provided compatible solutes. The opuAA-treA reporter fusion strains STHB10 (OpuAR^+) and STHB11 (OpuAR^-) were cultivated in SMM containing 1.2 M NaCl either in the absence or presence of 1 mM of the indicated compatible solutes. The opuAA-treA reporter fusion strains were grown to early exponential growth phase (OD578 1–1.5) and then assayed for TreA reporter enzyme activity. The given data are the means and standard deviations of four independent biological replicates and each culture was assayed twice.
To identify possible effector molecules for the B. infantis OpuAR protein, we conducted a series of in vivo experiments in which we assessed any possible inducing effects of compatible solutes on opuAA-treA transcriptional activity in an OpuAR-dependent fashion (Figure 6D).

SMILES	Induction of opuAA-treA reporter activity (OpuAR-dependent)
C[N+]1(C)CCC[C@H]1C(=O)[O-] [proline betaine]	served as inducers; also recorded: induced
C[S+](C)CCC(=O)[O-] [DMSP, dimethylsulfoniopropionate]	did not serve as inducers
C[N+](C)(C)CC(=O)[O-] [glycine betaine]	served as inducers; also recorded: induced
CN(C)CC(=O)O [DMG, dimethlyglycine]	did not serve as inducers
C[N+](C)(C)CCC(=O)[O-] [homobetaine]	did not serve as inducers
C[N+](C)(C)CCO [choline]	served as inducers; also recorded: induced
